Consider 2 compounds from US8980933B2, “Combretastatin analogs for use in the treatment of cancer” (Universitat Bayreuth, priority 2010, dated 2015).

One data set is described as follows: Solubility in water. The data set is classed as physicochemical.
The test system of data set [1] is 1411HP germ cell tumor cell line. Briefly: SRB-cytotoxicity assay, 1411HP. The data set is classed as cell-based, human. The following applies: for effect on multi-drug resistance of 1411HP cells: compared with cisplatin. As for the experimental part: The cytotoxic activity of 5b was established by standard colorimetric tests (SRB- and MTT-assays) against various tumor cell lines of different entities. For the SRB cytotoxicity assay, dose-response curves of the testicular germ cell tumor cell lines exposed to drug concentrations of 0.001-10 μM were established using the sulforhodamine-B (SRB) microcuiture colorimetric assay (Papazisis et al. Optimization of the sulforhodamine B colorimetric assay. J. Immunol. Methods 1997, 208, 151-158) and performed as described in: Müller et al. Failure of activation of caspase-9 induces a higher threshold for apoptosis and cisplatin resistance in testicular cancer. Cancer Res. 2003, 63, 513-521. Briefly, cells were seeded into 96-well plates on day 0, at cell densities previously determined to ensure exponential cell growth during the period of the experiment. On day 1, cells were treated with the drugs dissolved in medium to give the appropriate concentrations for indicated times and the percentage of surviving cells relative to untreated controls was determined on day 5.
In general terms: The SRB assay estimates cell density from bound dye.

In data set [2] the test system is KB-V1/Vbl cervical carcinoma cells. Put plainly: MTT cell growth inhibition, KB-V1/Vbl. The data set is classed as cell-based, human. The following applies: Pgp-overexpressing KB-V1 cells. On the procedure: The MCF-7/Topo cells were grown in E-MEM medium (Sigma) supplemented with 2.2 g/L NaHCO3, 110 mg/L sodium pyruvate and 5% FCS. The cells were maintained in a moisture-saturated atmosphere (5% CO2) at 37° C. in 75-mL culture flasks (Nunc, Wiesbaden, Germany). They were serially passaged following trypsinisation by 0.05% trypsin/0.02% EDTA (PAA laboratories, Clbe, Germany). Mycoplasma contamination was routinely monitored, and only mycoplasma-free cultures were used.
HL-60 leukemia cells (5×10^5/mL), and cells (5×10^4/mL) of 518A2 melanoma, HT-29 colon, KB-V1/Vbl cervix and MCF-7/Topo breast carcinoma were seeded out in 96-well tissue culture plates and cultured for 24 h. […] Blank and solvent controls were treated identically. MTT in phosphate buffered saline (5 mg/mL) was added to a final concentration of 0.05% (HL-60, 518A2) or 0.1% (HT-29, KB-V1/Vbl, MCF-7/Topo). After 2 h the formazan precipitate was dissolved in 10% sodium dodecylsulfate in DMSO containing 0.6% acetic acid in the case of the HL-60 cells. For the adherent 518A2, KB-V1/Vbl, MCF-7/Topo and HT-29 cells the microplates were swiftly turned to discard the medium before adding the solvent mixture. The microplates were gently shaken in the dark for 30 min and absorbance at 570 nm and 630 nm (background) was measured with an ELISA plate reader. All experiments were carried out in quadruplicate; the percentage of viable cells was calculated as the mean±SD with controls set to 100%.

In a further data set the test system is 518A2 cells. Briefly: ROS generation, NBT assay, 518A2. The data set is classed as cell-based, human. As to conditions: 50 μM, relative to untreated controls (1%), mean ± SD. A digest of the protocol:
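Cells were treated with compounds at 50 μM final, then exposed to 0.1% NBT for 1 h (HL-60, 0.5·10^6/mL) or 4 h (518A2, medium removed first). Reduced formazan was dissolved in KOH/DMSO, and absorbance was read at 630 nm with 405 nm background. Assays were run in quadruplicate.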

One may read the solubility as how much of the substance goes into solution per volume. What is called IC50 is the point on the concentration scale where inhibition reaches its midpoint. A higher IC50 goes with weaker potency. `COc1ccc(-c2c(-c3cc(Cl)c(OC)c(OC)c3)ncn2C)cc1N` [compound 5b, 1-methyl-5-(3-amino-4-methoxyphenyl)-4-(3-chloro-4,5-dimethoxyphenyl)-imidazole] displayed a solubility in the data set “Solubility in water” of more than 10000 µg/mL. The same compound returned a concentration for half-maximal inhibition (IC50) in data set [1] (Homo sapiens, 1411HP (chemoresistant), 96 h) of 30 to 50 nM. Also, the “effect on multi-drug resistance of 1411HP cells” value in data set [1] is “breach of the multi-drug resistance of 1411HP cells”. Also, the IC50 concentration result in data set [2] was “single-digit nanomolar range”. The “NBT Reduction [%] in 518A2 cells after 24 h” value with 518A2 cells is 1.8 ± 0.2%.

The compound `COc1ccc(-c2c(-c3cc(Br)c(OC)c(OC)c3)ncn2C)cc1N` [compound 6b, 1-methyl-5-(3-amino-4-methoxyphenyl)-4-(3-bromo-4,5-dimethoxyphenyl)-imidazole] returned a solubility in the data set “Solubility in water” of more than 10000 µg/mL. Also, the “effect on multi-drug resistance of 1411HP cells” value in data set [1] was “breach of the multi-drug resistance of 1411HP cells”. Besides, in data set [2], the IC50 concentration result is given as “single-digit nanomolar range”. In addition, the “NBT Reduction [%] in 518A2 cells after 24 h” value in the data set on 518A2 cells turned out to be 1.5 ± 0.2%.
